pIC50: −log10 of the molar value.
Test system: Influenza A/WSN/33-Luciferase virus
Assay: microbe, parasite or virus in culture
Format: cell-based
Details: A549, 72 h, luciferase signal three days later, read-out: IC50 antiviral activity (Luciferase reporter assay)

| Compound | pIC50 |
| --- | --- |
| CCc1cc(Nc2nn(-c3ccc(OC(F)(F)F)cc3)c(=O)c3ccccc23)c(=O)n(C)c1 [Example 67, 4-[(5-ethyl-1-methyl-2-oxo-3-pyridyl)amino]-2-[4-(trifluoromethoxy)phenyl]phthalazin-1-one] | 6.25 |
| O=C(O)[C@@H]1CCCN1CCn1cccc(Nc2nn(-c3ccc(OC(F)(F)F)cc3)c(=O)c3ccccc23)c1=O [Example 115, (2S)-1-[2-[2-oxo-3-[[4-oxo-3-[4-(trifluoromethoxy)phenyl]phthalazin-1-yl]amino]-1-pyridyl]ethyl]pyrrolidine-2-carboxylic acid] | 6.74 |
| Cn1cccc(Nc2nn(-c3ccc(OC(F)(F)F)cc3)c(=O)c3cccc(F)c23)c1=O [Example 18, 5-fluoro-4-[(1-methyl-2-oxo-3-pyridyl)amino]-2-[4-(trifluoromethoxy)phenyl]phthalazin-1-one] | 6.91 |
| CN(C)CCn1cncc(Nc2nn(-c3ccc(OC(F)(F)F)cc3)c(=O)c3c2CCCC3)c1=O [Example 25, 4-[[1-[2-(dimethylamino)ethyl]-6-oxo-pyrimidin-5-yl]amino]-2-[4-(trifluoromethoxy)phenyl]-5,6,7,8-tetrahydrophthalazin-1-one] | 7.85 |
| CCn1cncc(Nc2nn(-c3ccc(OC(F)(F)F)cc3)c(=O)c3c2CCN(C(C)=O)C3)c1=O [Example 85, 6-acetyl-1-[(1-ethyl-6-oxo-pyrimidin-5-yl)amino]-3-[4-(trifluoromethoxy)phenyl]-7,8-dihydro-5H-pyrido[3,4-d]pyridazin-4-one] | 7.25 |
| CN(C)C(=O)Cn1cccc(Nc2nn(-c3ccc(OC(F)(F)F)cc3)c(=O)c3ccccc23)c1=O [Example 89, N,N-dimethyl-2-[2-oxo-3-[[4-oxo-3-[4-(trifluoromethoxy)phenyl]phthalazin-1-yl]amino]-1-pyridyl]acetamide] | 7.42 |
| CS(=O)(=O)CCn1cccc(Nc2nn(-c3ccc(OC(F)(F)F)cc3)c(=O)c3ccccc23)c1=O [Example 72, 4-[[1-(2-methylsulfonylethyl)-2-oxo-3-pyridyl]amino]-2-[4-(trifluoromethoxy)phenyl]phthalazin-1-one] | 7.62 |
| Cn1cccc(Nc2nn(-c3ccc(OC(F)(F)F)cc3)c(=O)c3ccc(O)cc23)c1=O [Example 126, 6-Hydroxy-4-[(1-methyl-2-oxo-3-pyridyl)amino]-2-[4-(trifluoromethoxy)phenyl]phthalazin-1-one] | 6.72 |
| CC(=O)N1CCc2c(c(Nc3cncn(C)c3=O)nn(-c3ccc(OC(F)(F)F)cc3)c2=O)C1 [Example 151, 6-Acetyl-4-[(1-methyl-6-oxo-pyrimidin-5-yl)amino]-2-[4-(trifluoromethoxy)phenyl]-7,8-dihydro-5H-pyrido[3,4-d]pyridazin-1-one] | 6.43 |
| COC(=O)[C@H]1CCCN1CCn1cccc(Nc2nn(-c3ccc(OC(F)(F)F)cc3)c(=O)c3ccccc23)c1=O [Example 6, methyl (2R)-1-[2-[2-oxo-3-[[4-oxo-3-[4-(trifluoromethoxy)phenyl]phthalazin-1-yl]amino]-1-pyridyl]ethyl]pyrrolidine-2-carboxylate] | 7.28 |
| CC(O)CN1CCc2c(Nc3cccn(C)c3=O)nn(-c3ccc(OC(F)(F)F)cc3)c(=O)c2C1 (centres unmarked) [Example 145, 6-(2-Hydroxypropyl)-1-[(1-methyl-2-oxo-3-pyridyl)amino]-3-[4-(trifluoromethoxy)phenyl]-7,8-dihydro-5H-pyrido[3,4-d]pyridazin-4-one] | 6.89 |
| CCCn1cncc(Nc2nn(-c3ccc(OC(F)(F)F)cc3)c(=O)c3c2CCN(C(C)=O)C3)c1=O [Example 86, 6-acetyl-1-[(6-oxo-1-propyl-pyrimidin-5-yl)amino]-3-[4-(trifluoromethoxy)phenyl]-7,8-dihydro-5H-pyrido[3,4-d]pyridazin-4-one] | 7.47 |
| COC(=O)[C@@H]1CCCN1CCn1cccc(Nc2nn(-c3ccc(OC(F)(F)F)cc3)c(=O)c3ccccc23)c1=O [Example 79, methyl (2S)-1-[2-[2-oxo-3-[[4-oxo-3-[4-(trifluoromethoxy)phenyl]phthalazin-1-yl]amino]-1-pyridyl]ethyl]pyrrolidine-2-carboxylate] | 7.49 |
| Cn1cncc(Nc2nn(-c3ccc(OC(F)(F)F)cc3)c(=O)c3c2CCCC3)c1=O [Example 22, 4-[(1-methyl-6-oxo-pyrimidin-5-yl)amino]-2-[4-(trifluoromethoxy)phenyl]-5,6,7,8-tetrahydrophthalazin-1-one] | 7.80 |
| COc1ccc(-n2nc(Nc3cccn(C)c3=O)c3c(c2=O)CCC3)cc1OC [Example 172, 3-(3,4-Dimethoxyphenyl)-1-[(1-methyl-2-oxo-3-pyridyl)amino]-6,7-dihydro-5H-cyclopenta[d]pyridazin-4-one] | 5.46 |
| COC(=O)N1CCc2c(c(Nc3cccn(C)c3=O)nn(-c3ccc(OC(F)(F)F)cc3)c2=O)C1 [Example 152, Methyl 4-[(1-methyl-2-oxo-3-pyridyl)amino]-1-oxo-2-[4-(trifluoromethoxy)phenyl]-7,8-dihydro-5H-pyrido[3,4-d]pyridazine-6-carboxylate] | 7.49 |
| Cn1cccc(Nc2nn(-c3ccc(OC(F)F)cc3)c(=O)c3c2CCCC3)c1=O [Example 27, 2-[4-(difluoromethoxy)phenyl]-4-[(1-methyl-2-oxo-3-pyridyl)amino]-5,6,7,8-tetrahydrophthalazin-1-one] | 7.39 |
| CN(C)C(=O)COCCn1cccc(Nc2nn(-c3ccc(OC(F)(F)F)cc3)c(=O)c3c2CCC3)c1=O [Example 108, N,N-dimethyl-2-[2-[2-oxo-3-[[4-oxo-3-[4-(trifluoromethoxy)phenyl]-6,7-dihydro-5H-cyclopenta[d]pyridazin-1-yl]amino]-1-pyridyl]ethoxy]acetamide] | 7.54 |
| O=C(Cn1cccc(Nc2nn(-c3ccc(OC(F)(F)F)cc3)c(=O)c3ccccc23)c1=O)NCCO [Example 92, N-(2-hydroxyethyl)-2-[2-oxo-3-[[4-oxo-3-[4-(trifluoromethoxy)phenyl]phthalazin-1-yl]amino]-1-pyridyl]acetamide] | 6.75 |
| Cn1cccc(Nc2nn(-c3ccc(OC(F)(F)F)cc3)c(=O)c3c2CC(C)(C)C3)c1=O [Example 61, 6,6-dimethyl-1-[(1-methyl-2-oxo-3-pyridyl)amino]-3-[4-(trifluoromethoxy)phenyl]-5,7-dihydrocyclopenta[d]pyridazin-4-one] | 7.22 |
| C=Cc1ccc2c(=O)n(-c3ccc(OC(F)(F)F)cc3)nc(Nc3cccn(C)c3=O)c2c1 [Example 83, 4-[(1-methyl-2-oxo-3-pyridyl)amino]-2-[4-(trifluoromethoxy)phenyl]-6-vinyl-phthalazin-1-one] | 5.83 |
| CNC(=O)COCCn1cccc(Nc2nn(-c3ccc(OC(F)(F)F)cc3)c(=O)c3c2CCC3)c1=O [Example 107, N-methyl-2-[2-[2-oxo-3-[[4-oxo-3-[4-(trifluoromethoxy)phenyl]-6,7-dihydro-5H-cyclopenta[d]pyridazin-1-yl]amino]-1-pyridyl]ethoxy]acetamide] | 7.31 |
| O=c1c(Nc2nn(-c3ccc(OC(F)(F)F)cc3)c(=O)c3c2CCC3)cncn1CCN1CC(O)C1 [Example 169, 1-[[1-[2-(3-Hydroxyazetidin-1-yl)ethyl]-6-oxo-pyrimidin-5-yl]amino]-3-[4-(trifluoromethoxy)phenyl]-6,7-dihydro-5H-cyclopenta[d]pyridazin-4-one] | 6.51 |
